Assay results taken from article PMC10073293, “Discovery of IHMT-MST1-39 as a novel MST1 kinase inhibitor and AMPK activator for the treatment of diabetes mellitus” (Signal Transduction and Targeted Therapy, 2023).

What was measured:
[1] = molecular target: T1, MST1 (mammalian sterile 20-like kinase 1) (Homo sapiens, UniProt Q13043)
T1 construct: gene STK4

MST2 = molecular target: T2, MST2 (Homo sapiens, UniProt Q13188); experiment: biochemical kinase assay; KD also determined (Fig. 1c, d); KINOMEscan binding
T2 construct: gene STK3
T2 sequence (Q13188 1-491): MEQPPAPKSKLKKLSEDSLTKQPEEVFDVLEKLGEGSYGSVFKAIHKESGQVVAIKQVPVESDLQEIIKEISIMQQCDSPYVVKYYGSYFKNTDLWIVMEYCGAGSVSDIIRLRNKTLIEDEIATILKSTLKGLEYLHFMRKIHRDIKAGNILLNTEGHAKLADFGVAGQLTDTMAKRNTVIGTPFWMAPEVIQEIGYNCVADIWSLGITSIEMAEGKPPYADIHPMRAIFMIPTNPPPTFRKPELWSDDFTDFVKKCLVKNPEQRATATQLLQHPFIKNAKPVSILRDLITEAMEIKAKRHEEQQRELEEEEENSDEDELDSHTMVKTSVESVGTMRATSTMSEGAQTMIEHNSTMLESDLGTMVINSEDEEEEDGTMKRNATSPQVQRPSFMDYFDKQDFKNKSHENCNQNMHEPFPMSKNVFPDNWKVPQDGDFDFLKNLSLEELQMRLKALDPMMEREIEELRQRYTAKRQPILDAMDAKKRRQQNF

T1 sequence (Q13043 whole entry): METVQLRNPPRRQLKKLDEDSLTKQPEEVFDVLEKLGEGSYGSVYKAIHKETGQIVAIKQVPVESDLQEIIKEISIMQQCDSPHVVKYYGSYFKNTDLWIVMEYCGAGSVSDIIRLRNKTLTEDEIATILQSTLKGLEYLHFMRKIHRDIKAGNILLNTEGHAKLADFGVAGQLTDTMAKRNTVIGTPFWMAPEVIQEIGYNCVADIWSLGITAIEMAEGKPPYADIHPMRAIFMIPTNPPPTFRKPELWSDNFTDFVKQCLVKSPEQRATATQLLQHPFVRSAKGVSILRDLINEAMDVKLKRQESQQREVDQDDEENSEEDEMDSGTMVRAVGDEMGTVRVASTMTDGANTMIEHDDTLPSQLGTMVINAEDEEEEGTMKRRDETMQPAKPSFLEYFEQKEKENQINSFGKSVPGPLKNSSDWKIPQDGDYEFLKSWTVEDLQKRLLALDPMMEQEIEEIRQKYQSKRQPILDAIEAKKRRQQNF

SMILES: CN1C(=O)C(c2c(F)cccc2F)N(C)c2nc(Nc3ccc(S(N)(=O)=O)cc3)ncc21 (centres unmarked) [IHMT-MST1-39]
- IC50 [1]: 42 nM
- IC50 (MST2): 109 nM
